Results reported in article PMC12814185, “Receptor-Mediated Shuttling of a D‑Amino Acid Peptide Achieves High Nanomolar Cytosolic Concentrations” (Journal of the American Chemical Society, 2025).
Where a SMILES comes first, the peptide text is derived from it. Bridges are numbered along the chain shown (N, C = ends). Roman numbers before positions name the chains, in order. Triazole bridges read from a SMILES are 1,4-linked. Where no end group is shown, it is not given here. Side-chain parts run from the residue outwards. [ ]: non-standard residue; d: D form. The star is where a group is joined. X2 = CN1C(=C/C=C/C=C/C2=[N+](CCCCCC(=O)*)c3ccc(S(=O)(=O)[O-])cc3C2(C)C)C(C)(C)c2cc(S(=O)(=O)O)ccc21; X1 = CN1C(=CC=CC=CC2=[N+](CCCCCC(=O)*)c3ccc(S(=O)(=O)[O-])cc3C2(C)C)C(C)(C)c2cc(S(=O)(=O)O)ccc21; Lys(N3) = [N-]=[N+]=NCCCC[C@H](N)C(=O)O; Cit = NC(=O)NCCC[C@H](N)C(=O)O; d(hCys) = N[C@H](CCS)C(=O)O; PEG3 = NCCOCCOCCOCCC(=O)O; Pra = C#CC[C@H](N)C(=O)O

Legend:
[1] = tested on: HMEC-1 cells; test: Fluorescence correlation spectroscopy (FCS) in the cytosol; settings: HMEC-1, applied concentration 1000 nM, 72 h; for cytosolic concentration, mean ± SD: FCS at 22 °C
Procedure: (§1) 3 Quantification of Cy5-labeled peptides in the cytosol. (A) RP-HPLC (λex = 640 nm, λem = 670 nm) of cleavage products of Cy5-labeled peptides in the lysate of HEK293_CMKLR1-eYFP cells after incubation with 1 μM peptide for different durations. […] (B) Representative fluorescence correlation spectroscopy (FCS) autocorrelation curves of Cy5-labeled peptides measured in the cytosol of HEK293_CMKLR1-eYFP cells after 72 h of incubation. Measured curves were fitted with a model for hindered 3D diffusion and diffusion time t D and anomalous coefficient α were calculated from the fit. Autocorrelation data represent mean ± SD of up to 10 consecutive 5 s measurements in a single cell. (C) Intracellular concentrations of Cy5-labeled peptides after 72 h incubation calculated from the fitted autocorrelation curves obtained in HEK293_CMKLR1-eYFP, HMEC-1, and THP-1 cells. Each data point corresponds to FCS measurements from the cytosol of a single cell. Median with the interquartile range is shown. Data from three independent experiments. Statistical comparison by log-normal unpaired t test. ***p ≤ 0.001, **p ≤ 0.01, *p ≤ 0.05, ns – not significant. […] (D) Calculated diffusion coefficients from the fitted autocorrelation curves. Median with the interquartile range is shown. […]
(§2) Fluorescence correlation spectroscopy (FCS)
(§3) Cytosolic delivery was quantified by FCS as has been described previously.3–5 Stably transfected HEK293_CMKLR1-eYFP cells were seeded at 30,000 cells per well and HMEC-1 cells at 10,000 cells per well into poly-ᴅ-lysine-coated 8-well microscopy slides (ibidi) in their respective cell culture medium. THP-1 cells were resuspended in fresh cell culture medium at 100,000 cells/mL in 500 µL cell culture medium in uncoated 12-well plates. The next day, dilutions of Cy5-labeled peptides were added to the cells and incubated for 72 h. Cell membranes of HMEC-1 and THP-1 cells were stained with 20 µg/mL Alexa Fluor 488-labeled concanavalin A (Invitrogen) for 20 min to enable identification of the cytosol. Nuclei were counterstained with Hoechst33342, and cells were washed with FluoroBriteTM DMEM (Gibco) + 25 mM HEPES (pH 7.4). After washing, THP-1 cells were transferred to poly-ᴅ-lysine-coated 8-well microscopy slides and allowed to sediment and adhere for 1 h. Confocal imaging and FCS were performed at 22 °C on a TCS SP8 FALCON microscope (Leica) with a Plan-Apochromat 40x/1,10 water immersion objective and HyD single molecule detector (Leica). The 638 nm laser line was used for excitation at 0.5% power and […]

[2] = tested on: HEK293_CMKLR1-eYFP cells; test: as above; settings: 72 h; for cytosolic concentration, median (IQR) / cytosolic concentration, mean ± SD: FCS at 22 °C
Procedure: as §1, §2, §3

[3] = tested on: THP-1 cells; test: as above; settings: THP-1, applied concentration 1000 nM, 72 h; for cytosolic concentration, mean ± SD: FCS at 22 °C
Procedure: as §1, §2, §3

[4] = tested on: MDA-MB-231 cells; test: as above; assay type: cell-based; settings: 72 h
From the text: Fluorescence correlation spectroscopy (FCS) […] Prior to measurements, the correction collar of the objective […] 1 τ 1 1 (Equation 2) G(τ) = ∗ (1 - […] 1 + ( τ )α √1 + S2 ∗ ( τ )α τD τD 4

[5] = target: T1, recombinant human GST-MDM2 (Homo sapiens, UniProt Q00987); test: Fluorescence polarization binding of Cy5-labeled peptides to MDM2; settings: 20 nM Cy5-labeled peptide, FP buffer pH 7.4, 30 min room temperature; performed twice in technical triplicates
T1 construct: purchased R&D Systems
Procedure: (B) Fluorescence polarization measurement of 20 nM Cy5-labeled peptides binding to recombinant human GST-MDM2.
20 nM of Cy5-labeled peptides were added to dilutions of human MDM2 (Recombinant Human GST -
MDM2/HDM2, R&D Systems) in FP buffer (50 mM tris(hydroxymethyl)aminomethane (Tris, Carl Roth),
150 mM sodium chloride (Sigma), 1 mM EDTA (Sigma), 0.01% (v/v) Tween20 (Sigma), pH 7.4) and
incubated for 30 min at room temperature. Fluorescence polarization was then measured in a Tecan
Spark plate reader (λex = 640 nm, λem = 670 nm). Measurements were performed twice in technical
triplicates. Data was then fit with Prism 10 (GraphPad) using non-linear regression with the following
solution to the quadratic binding equation 1 to obtain Kd:
𝐹𝑃 = 𝐹𝑃 + (𝐹𝑃 − 𝐹𝑃 ) ∗ 𝑐 + 𝑐 + 𝐾 − 𝑝𝑒𝑝𝑡𝑖𝑑𝑒 𝑀𝐷𝑀2 𝑑 𝑝𝑒𝑝𝑡𝑖𝑑𝑒 𝑀𝐷𝑀2

[6] = applied concentration 10 nM, single cells, three independent experiments
[7] = applied concentration 1000 nM (1 μM)
[8] = applied concentration 10000 nM (10 μM)

T1 sequence (Q00987 whole entry): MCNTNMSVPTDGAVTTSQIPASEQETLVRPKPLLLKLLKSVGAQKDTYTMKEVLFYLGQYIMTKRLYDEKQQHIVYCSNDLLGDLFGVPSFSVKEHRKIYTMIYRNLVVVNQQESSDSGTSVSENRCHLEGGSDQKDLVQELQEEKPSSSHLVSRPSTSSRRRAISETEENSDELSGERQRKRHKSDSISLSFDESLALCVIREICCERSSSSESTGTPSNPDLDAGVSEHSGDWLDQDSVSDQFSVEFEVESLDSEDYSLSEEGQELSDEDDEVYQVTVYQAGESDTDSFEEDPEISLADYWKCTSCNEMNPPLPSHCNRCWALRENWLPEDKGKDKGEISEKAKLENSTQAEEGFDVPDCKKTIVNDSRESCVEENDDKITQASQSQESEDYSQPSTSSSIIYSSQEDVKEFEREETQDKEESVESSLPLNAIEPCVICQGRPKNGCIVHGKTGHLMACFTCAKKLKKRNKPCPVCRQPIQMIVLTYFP

CC(=O)N[C@@H](CCCCn1cc(C[C@H](NC(=O)CCOCCOCCOCCNC(=O)[C@H](CCCNC(N)=O)NC(=O)[C@@H](NC(=O)[C@H](CCC(=O)O)NC(=O)CNC(=O)CNC(=O)[C@@H](CCCNC(=N)N)NC(=O)[C@@H](CC(C)C)NC(=O)[C@@H](CC(C)C)NC(=O)[C@@H](C)NC(=O)[C@@H](CCC(=O)O)NC(=O)[C@@H](Cc2ccccc2)NC(=O)[C@@H](C)NC(=O)[C@@H](CC(C)C)NC(=O)[C@H]2CCCN2C(=O)[C@@H](Cc2c[nH]c3ccccc23)NC(=O)[C@@H](Cc2c[nH]c3ccccc23)NC(=O)[C@@H](CC(=O)O)NC(=O)CCOCCOCCOCCNC(=O)CCCCC[N+]2=C(/C=C/C=C/C=C3N(C)c4ccc(S(=O)(=O)O)cc4C3(C)C)C(C)(C)c3cc(S(=O)(=O)[O-])ccc32)C(C)C)C(N)=O)nn1)C(=O)N[C@@H](Cc1ccc(O)cc1)C(=O)N[C@@H](Cc1ccccc1)C(=O)N1CCC[C@H]1C(=O)N[C@@H]1CCSSC[C@@H](C(=O)O)NC(=O)[C@H](Cc2ccccc2)NC(=O)[C@H](C)NC(=O)[C@H](Cc2ccccc2)NC(=O)[C@H](CCC(N)=O)NC1=O [2Cy] (I: {X2-PEG3}-[dD][dW][dW][dP][dL][dA][dF][dE][dA][dL][dL][dR]GGEV[Cit][PEG3][Pra]-NH2 / II: Ac-[Lys(N3)]YFP[d(hCys)]QFAFC-OH; triazole I:19-II:1; disulfide II:5-II:10)
cytosolic concentration, median (IQR) [1]: 6.4 (3.7–9.3) nM
cytosolic concentration, mean ± SD [1]: 7.8 ± 5.4 nM
cytosolic concentration, median (IQR) ([2]; applied concentration 10 nM): 6.2 (3.1–9.1) nM
cytosolic concentration, mean ± SD [2, 6]: 8.4 ± 7.8 nM
cytosolic concentration, mean ± SD ([2]; applied concentration 100 nM): 11.6 ± 14.6 nM
cytosolic concentration, median (IQR) ([2]; applied concentration 100 nM): 6.8 (3.3–13.0) nM
cytosolic concentration, median (IQR) [2, 7]: 43.1 (19.0–99.4) nM
cytosolic concentration, mean ± SD ([2]; applied concentration 1000 nM): 78.6 ± 83.2 nM
cytosolic concentration, median (IQR) [2, 8]: 106 nM
cytosolic concentration, mean ± SD ([2]; applied concentration 10000 nM): 161 ± 128 nM
cytosolic concentration, median (IQR) [3]: 14.0 (7.1–26.6) nM
cytosolic concentration, mean ± SD [3]: 22.7 ± 25.1 nM
cytosolic FCS measurement [4]: no successful measurements were obtained

I: GSVSHHHHHHGGHHHH[PEG3][dK]([PEG3-X1])[dD][dW][dW][dP][dL][dA][dF][dE][dA][dL][dL][dR]GEV[Cit][PEG3][Pra]-NH2 / II: Ac-[Lys(N3)]YFP[d(hCys)]QFAFC-OH (triazole I:36-II:1; disulfide II:5-II:10) [3Cy]
Kd [5]: 90 nM
cytosolic concentration, median (IQR) [1]: 7.0 (5.2–12.4) nM
cytosolic concentration, mean ± SD [1]: 20.1 ± 57.2 nM
cellular stress ([2]; 10 μM, data not shown): showed signs of cellular stress
cytosolic concentration, median (IQR) ([2]; applied concentration 10 nM): 5.5 (3.2–9.5) nM
cytosolic concentration, mean ± SD [2, 6]: 6.6 ± 5.0 nM
cytosolic concentration, mean ± SD ([2]; applied concentration 100 nM): 23.5 ± 40.2 nM
cytosolic concentration, median (IQR) ([2]; applied concentration 100 nM): 10.2 (5.2–32.1) nM
cytosolic concentration, median (IQR) [2, 7]: 98.8 nM
cytosolic concentration, mean ± SD ([2]; applied concentration 1000 nM): 138 ± 122 nM
cytosolic concentration, median (IQR) [2, 8]: 228 nM
cytosolic concentration, mean ± SD ([2]; applied concentration 10000 nM): 308 ± 257 nM
cytosolic concentration, median (IQR) [3]: 22.6 (12.7–38.5) nM
cytosolic concentration, mean ± SD [3]: 40.3 ± 77.12 nM
cytosolic FCS measurement [4]: no successful measurements were obtained
